Measurements published in the supplement of paper PMC10307832.

Tests used:
Test in all cases: relative viability (nuclei count vs DMSO), 5 days (fraction); higher = more cells survive
OSI-027 + Lapatinib = compound: COc1cccc2cc(-c3nc([C@H]4CC[C@H](C(=O)O)CC4)n4ncnc(N)c34)[nH]c12 [OSI-027] + CS(=O)(=O)CCNCc1ccc(-c2ccc3ncnc(Nc4ccc(OCc5cccc(F)c5)c(Cl)c4)c3c2)o1 [Lapatinib] (partner 2 µM)
Method in brief: (§1)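 Cells from lung cancer lines were seeded into 1536-well plates and, one day later, dosed by pin tool. Treatments were either a single drug or a fixed dose of an anchor drug with five library-drug doses (not always all listed) in √10 steps. After 5 days, nuclei were stained in a one-step fixation (final 0.05% Triton X-100, 1% formaldehyde, 1 ug/ml Hoechst) and counted on 4× images, and relative viability is the treated-to-vehicle nuclei ratio, as the median of duplicate plates.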

Alpelisib + Navitoclax = compound: Cc1nc(NC(=O)N2CCC[C@H]2C(N)=O)sc1-c1ccnc(C(C)(C)C(F)(F)F)c1 [Alpelisib] + CC1(C)CCC(c2ccc(Cl)cc2)=C(CN2CCN(c3ccc(C(=O)NS(=O)(=O)c4ccc(N[C@H](CCN5CCOCC5)CSc5ccccc5)c(S(=O)(=O)C(F)(F)F)c4)cc3)CC2)C1 [Navitoclax] (partner 0.5 µM)
Method in brief: as §1

Vemurafenib + Trametinib = compound: CCCS(=O)(=O)Nc1ccc(F)c(C(=O)c2c[nH]c3ncc(-c4ccc(Cl)cc4)cc23)c1F [Vemurafenib] + CC(=O)Nc1cccc(-n2c(=O)n(C3CC3)c(=O)c3c(Nc4ccc(I)cc4F)n(C)c(=O)c(C)c32)c1 [Trametinib] (partner 0.02 µM)
Method in brief: as §1

Alpelisib + Phenformin = compound: Cc1nc(NC(=O)N2CCC[C@H]2C(N)=O)sc1-c1ccnc(C(C)(C)C(F)(F)F)c1 [Alpelisib] + N=C(N)NC(=N)NCCc1ccccc1 [Phenformin] (partner 250 µM)
Method in brief: as §1

| Cell Line | relative viability (OSI-027 + Lapatinib; first compound 0.01 µM) | relative viability (OSI-027 + Lapatinib; first compound 0.03162 µM) | relative viability (OSI-027 + Lapatinib; first compound 0.1 µM) | relative viability (OSI-027 + Lapatinib; first compound 0.3162 µM) | relative viability (OSI-027 + Lapatinib; first compound 1 µM) | relative viability (Alpelisib + Navitoclax; first compound 0.04 µM) | relative viability (Alpelisib + Navitoclax; first compound 0.1265 µM) | relative viability (Alpelisib + Navitoclax; first compound 0.4 µM) | relative viability (Alpelisib + Navitoclax; first compound 1.265 µM) | relative viability (Alpelisib + Navitoclax; first compound 4 µM) | relative viability (Vemurafenib + Trametinib; first compound 0.03162 µM) | relative viability (Vemurafenib + Trametinib; first compound 0.1 µM) | relative viability (Vemurafenib + Trametinib; first compound 0.3162 µM) | relative viability (Vemurafenib + Trametinib; first compound 1 µM) | relative viability (Alpelisib + Phenformin; first compound 0.04 µM) | relative viability (Alpelisib + Phenformin; first compound 0.1265 µM) | relative viability (Alpelisib + Phenformin; first compound 0.4 µM) | relative viability (Alpelisib + Phenformin; first compound 1.265 µM) | relative viability (Alpelisib + Phenformin; first compound 4 µM) |
| --- | --- | --- | --- | --- | --- | --- | --- | --- | --- | --- | --- | --- | --- | --- | --- | --- | --- | --- | --- |
| NCI-H1437 | 0.807 | 0.756 | 0.807 | 0.69 | 0.312 | 1.09 | 1.13 | 1.03 | 1.01 | 1.03 | 0.474 | 0.538 | 0.626 | 0.629 | 0.326 | 0.296 | 0.291 | 0.232 | 0.215 |
| NCI-H1650 | 0.76 | 0.725 | 0.643 | 0.646 | 0.392 | 1.29 | 1.29 | 1.42 | 0.762 | 1.19 | 0.595 | 0.406 | 0.633 | 0.577 | 0.405 | 0.408 | 0.43 | 0.362 | 0.308 |
| NCI-H1651 | 0.842 |  | 0.728 | 0.725 | 0.371 | 0.956 | 1.11 | 1.04 | 0.773 | 0.791 | 0.805 | 0.741 | 0.773 | 0.827 | 0.369 | 0.3 | 0.33 | 0.295 | 0.275 |
| NCI-H1666 | 0.521 | 0.709 | 0.554 | 0.33 | 0.27 | 0.95 | 0.677 | 0.937 | 0.762 | 0.689 | 0.928 | 0.786 | 1.04 | 0.86 | 0.557 | 0.602 | 0.576 | 0.591 | 0.564 |
| NCI-H1734 | 1.03 | 1.12 | 0.935 | 0.781 | 0.489 | 0.835 | 0.758 | 0.794 | 0.714 | 0.47 | 0.655 | 0.641 | 0.66 | 0.643 | 0.376 |  | 0.349 | 0.275 | 0.23 |
| NCI-H1755 | 1.01 | 1.06 | 1.01 | 0.817 | 0.579 | 1.05 | 0.979 | 1.04 | 0.93 | 0.705 | 0.812 | 0.73 | 0.761 | 0.763 | 0.653 | 0.601 | 0.68 | 0.574 | 0.433 |
| NCI-H1792 | 0.749 | 0.826 | 0.815 | 0.739 | 0.213 | 0.619 | 0.582 | 0.702 | 0.514 | 0.336 | 0.495 | 0.482 |  | 0.548 | 0.593 | 0.262 | 0.291 | 0.0902 | 0.0842 |
| NCI-H1793 | 0.619 | 0.65 | 0.559 | 0.264 | 0.26 | 0.419 | 0.335 | 0.356 | 0.376 | 0.365 | 0.397 | 0.387 | 0.467 | 0.591 | 0.365 | 0.322 | 0.365 | 0.301 | 0.238 |
| NCI-H1915 | 1.03 | 1.07 | 0.918 | 0.885 | 0.806 | 0.8 | 0.829 | 0.82 | 0.764 | 0.504 | 0.308 | 0.26 | 0.328 | 0.358 | 0.361 | 0.378 | 0.389 | 0.346 | 0.347 |
| NCI-H1944 | 0.802 | 0.875 | 0.799 | 0.631 | 0.444 | 0.964 | 1.13 | 1.09 | 0.824 | 0.617 | 0.453 |  | 0.41 | 0.423 | 0.194 | 0.214 | 0.182 | 0.16 | 0.138 |
| NCI-H1975 | 0.897 | 0.864 | 0.958 | 0.688 | 0.401 | 0.963 | 1.06 | 1.03 | 0.788 | 0.511 | 0.328 | 0.327 | 0.259 | 0.281 | 0.417 | 0.41 | 0.387 | 0.298 | 0.208 |
| NCI-H1993 | 0.786 | 0.808 | 0.773 | 0.785 | 0.693 | 1.11 | 0.879 | 0.874 | 0.659 | 0.702 | 0.5 |  | 0.555 | 0.609 | 0.501 | 0.534 | 0.443 | 0.539 | 0.507 |
| NCI-H2009 | 0.97 | 0.963 | 0.848 | 0.839 | 0.546 | 1.24 | 1.14 | 1.16 | 1.08 | 1.13 | 0.269 | 0.272 | 0.21 | 0.372 | 0.502 | 0.458 | 0.555 | 0.456 | 0.468 |
| NCI-H2023 | 0.735 | 0.663 | 0.567 | 0.393 | 0.18 | 0.882 | 1.01 | 0.887 | 0.782 | 0.66 | 0.592 | 0.489 | 0.597 | 0.699 | 0.404 | 0.408 | 0.371 | 0.287 | 0.282 |
| NCI-H2085 | 0.7 | 0.799 | 0.565 | 0.506 | 0.434 | 1.2 | 1.06 | 1.14 | 0.914 | 1.11 | 0.529 | 0.477 | 0.663 | 0.621 | 0.73 | 0.631 | 0.782 | 0.698 | 0.621 |
| NCI-H2087 | 1.11 | 1.06 | 0.873 | 0.951 | 0.769 | 1.01 | 1.09 | 1.1 | 0.767 | 0.991 | 0.204 | 0.14 | 0.292 | 0.256 | 0.491 | 0.483 | 0.501 | 0.36 | 0.284 |
| NCI-H2126 | 0.771 | 0.814 | 0.728 | 0.563 | 0.529 | 0.768 | 0.865 | 0.816 | 0.618 | 0.525 | 0.513 | 0.535 | 0.564 | 0.543 | 0.541 | 0.498 | 0.501 | 0.381 | 0.343 |
